Reference: ChEMBL document CHEMBL1154202, “Arylcarboxyamino-substituted diaryl ureas as potent and selective FLT3 inhibitors” (Bioorg Med Chem Lett, 2009)
Active and inactive are the calls of the source. The calls are words filed in the database; no cut-off is given here.

Legend:
[1] = tested on: MV4-11; test: Antitumor activity against human MV411 cells assessed as inhibition of cell proliferation; type: functional, cell-based
[2] = target: T1, Receptor-type tyrosine-protein kinase FLT3 (Homo sapiens, UniProt P36888)
T1 sequence (P36888 whole entry): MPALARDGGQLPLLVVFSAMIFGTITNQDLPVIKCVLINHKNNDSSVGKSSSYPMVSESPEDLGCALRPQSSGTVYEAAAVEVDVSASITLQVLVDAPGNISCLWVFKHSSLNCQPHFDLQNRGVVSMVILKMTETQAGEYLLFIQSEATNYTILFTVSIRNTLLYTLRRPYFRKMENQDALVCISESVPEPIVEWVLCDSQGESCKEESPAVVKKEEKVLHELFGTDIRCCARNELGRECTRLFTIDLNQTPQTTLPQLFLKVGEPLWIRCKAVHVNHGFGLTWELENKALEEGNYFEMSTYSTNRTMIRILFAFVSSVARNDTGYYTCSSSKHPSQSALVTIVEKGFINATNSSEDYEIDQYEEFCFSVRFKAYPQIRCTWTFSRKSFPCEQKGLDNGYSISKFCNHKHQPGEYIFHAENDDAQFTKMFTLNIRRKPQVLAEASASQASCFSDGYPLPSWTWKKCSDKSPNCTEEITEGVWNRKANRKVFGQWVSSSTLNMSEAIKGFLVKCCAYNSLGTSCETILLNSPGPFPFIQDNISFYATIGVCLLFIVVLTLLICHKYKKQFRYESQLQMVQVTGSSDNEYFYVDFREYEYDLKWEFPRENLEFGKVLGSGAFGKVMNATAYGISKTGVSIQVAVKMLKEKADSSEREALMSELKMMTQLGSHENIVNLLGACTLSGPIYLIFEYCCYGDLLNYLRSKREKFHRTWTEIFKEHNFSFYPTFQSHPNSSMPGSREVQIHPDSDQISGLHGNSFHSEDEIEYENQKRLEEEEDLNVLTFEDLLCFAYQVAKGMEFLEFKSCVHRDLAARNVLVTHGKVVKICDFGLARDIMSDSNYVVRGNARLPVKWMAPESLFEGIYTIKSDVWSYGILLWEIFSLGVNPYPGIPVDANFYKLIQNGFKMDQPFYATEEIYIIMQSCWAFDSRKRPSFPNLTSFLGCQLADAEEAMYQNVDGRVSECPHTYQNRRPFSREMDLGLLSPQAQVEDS

[3] = tested on: MV4-11; test: Antitumor activity against human MV411 cells in xenografted athymic nude mouse model assessed as decrease in tumor size at 10 mg/kg, po qd for 28 days measured after 29 to 36 days; type: functional
[4] = tested on: MV4-11; test: Antitumor activity against human MV411 cells in xenografted athymic nude mouse model assessed as decrease in tumor size at 30 mg/kg, po qd for 28 days; type: functional, organism-based; parameters: dose 30 mg/kg
[5] = target: Mast/stem cell growth factor receptor Kit (Homo sapiens, UniProt P10721); test: Binding affinity to KIT
Mast/stem cell growth factor receptor Kit, sequence (P10721 whole entry): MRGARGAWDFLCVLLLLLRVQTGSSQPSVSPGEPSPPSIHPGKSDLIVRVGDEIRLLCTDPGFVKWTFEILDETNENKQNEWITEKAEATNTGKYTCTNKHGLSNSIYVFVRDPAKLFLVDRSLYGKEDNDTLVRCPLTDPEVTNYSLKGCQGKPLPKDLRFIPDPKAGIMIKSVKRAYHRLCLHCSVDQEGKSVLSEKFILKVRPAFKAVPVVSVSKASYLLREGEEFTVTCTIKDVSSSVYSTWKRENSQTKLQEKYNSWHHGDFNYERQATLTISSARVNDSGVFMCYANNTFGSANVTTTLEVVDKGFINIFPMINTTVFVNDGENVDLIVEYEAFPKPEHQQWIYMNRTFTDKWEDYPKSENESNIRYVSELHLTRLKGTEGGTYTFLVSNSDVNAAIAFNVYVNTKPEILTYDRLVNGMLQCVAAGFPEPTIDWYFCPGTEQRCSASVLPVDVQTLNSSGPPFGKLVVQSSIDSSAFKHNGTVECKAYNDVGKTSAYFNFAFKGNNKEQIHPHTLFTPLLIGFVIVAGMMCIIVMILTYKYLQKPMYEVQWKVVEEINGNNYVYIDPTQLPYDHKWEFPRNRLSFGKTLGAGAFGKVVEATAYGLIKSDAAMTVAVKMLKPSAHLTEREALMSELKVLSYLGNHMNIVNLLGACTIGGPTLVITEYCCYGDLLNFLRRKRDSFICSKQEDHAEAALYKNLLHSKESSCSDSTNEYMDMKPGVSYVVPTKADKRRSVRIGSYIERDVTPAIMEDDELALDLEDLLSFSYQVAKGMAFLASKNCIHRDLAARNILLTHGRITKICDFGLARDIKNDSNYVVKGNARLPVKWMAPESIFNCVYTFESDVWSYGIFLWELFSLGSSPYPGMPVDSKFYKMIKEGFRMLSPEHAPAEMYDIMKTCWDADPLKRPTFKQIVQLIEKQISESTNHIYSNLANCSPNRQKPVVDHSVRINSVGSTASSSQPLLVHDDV

[6] = target: Macrophage colony-stimulating factor 1 receptor (Homo sapiens, UniProt P07333); test: Binding affinity to CSF1R
Macrophage colony-stimulating factor 1 receptor, sequence (P07333 whole entry): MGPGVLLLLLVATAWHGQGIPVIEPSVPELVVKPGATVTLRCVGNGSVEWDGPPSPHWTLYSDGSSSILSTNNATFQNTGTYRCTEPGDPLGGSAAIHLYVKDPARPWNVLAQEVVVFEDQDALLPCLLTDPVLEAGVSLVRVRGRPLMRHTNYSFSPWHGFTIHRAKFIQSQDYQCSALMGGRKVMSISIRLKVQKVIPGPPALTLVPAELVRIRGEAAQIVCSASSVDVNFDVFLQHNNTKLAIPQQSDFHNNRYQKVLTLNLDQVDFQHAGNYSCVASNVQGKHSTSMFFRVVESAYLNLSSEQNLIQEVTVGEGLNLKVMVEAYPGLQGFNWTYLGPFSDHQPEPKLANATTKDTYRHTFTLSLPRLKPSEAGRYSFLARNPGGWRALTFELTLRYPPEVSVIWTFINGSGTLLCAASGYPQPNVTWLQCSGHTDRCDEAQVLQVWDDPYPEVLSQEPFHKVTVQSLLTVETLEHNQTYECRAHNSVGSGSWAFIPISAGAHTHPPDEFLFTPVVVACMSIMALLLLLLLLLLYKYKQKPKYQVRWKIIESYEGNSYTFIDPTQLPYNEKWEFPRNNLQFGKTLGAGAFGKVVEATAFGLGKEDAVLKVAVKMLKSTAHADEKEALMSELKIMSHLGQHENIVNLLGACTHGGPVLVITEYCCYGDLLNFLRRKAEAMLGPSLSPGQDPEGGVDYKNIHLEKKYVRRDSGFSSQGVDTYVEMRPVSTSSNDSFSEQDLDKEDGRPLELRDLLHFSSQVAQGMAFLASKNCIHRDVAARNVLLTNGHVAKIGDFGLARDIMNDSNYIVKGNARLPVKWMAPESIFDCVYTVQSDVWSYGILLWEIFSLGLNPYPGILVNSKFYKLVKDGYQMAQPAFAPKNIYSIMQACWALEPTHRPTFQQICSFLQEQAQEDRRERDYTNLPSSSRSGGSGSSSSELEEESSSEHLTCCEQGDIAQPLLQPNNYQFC

[7] = target: Proto-oncogene tyrosine-protein kinase receptor Ret (Homo sapiens, UniProt P07949); test: Binding affinity to RET
Proto-oncogene tyrosine-protein kinase receptor Ret, sequence (P07949 whole entry): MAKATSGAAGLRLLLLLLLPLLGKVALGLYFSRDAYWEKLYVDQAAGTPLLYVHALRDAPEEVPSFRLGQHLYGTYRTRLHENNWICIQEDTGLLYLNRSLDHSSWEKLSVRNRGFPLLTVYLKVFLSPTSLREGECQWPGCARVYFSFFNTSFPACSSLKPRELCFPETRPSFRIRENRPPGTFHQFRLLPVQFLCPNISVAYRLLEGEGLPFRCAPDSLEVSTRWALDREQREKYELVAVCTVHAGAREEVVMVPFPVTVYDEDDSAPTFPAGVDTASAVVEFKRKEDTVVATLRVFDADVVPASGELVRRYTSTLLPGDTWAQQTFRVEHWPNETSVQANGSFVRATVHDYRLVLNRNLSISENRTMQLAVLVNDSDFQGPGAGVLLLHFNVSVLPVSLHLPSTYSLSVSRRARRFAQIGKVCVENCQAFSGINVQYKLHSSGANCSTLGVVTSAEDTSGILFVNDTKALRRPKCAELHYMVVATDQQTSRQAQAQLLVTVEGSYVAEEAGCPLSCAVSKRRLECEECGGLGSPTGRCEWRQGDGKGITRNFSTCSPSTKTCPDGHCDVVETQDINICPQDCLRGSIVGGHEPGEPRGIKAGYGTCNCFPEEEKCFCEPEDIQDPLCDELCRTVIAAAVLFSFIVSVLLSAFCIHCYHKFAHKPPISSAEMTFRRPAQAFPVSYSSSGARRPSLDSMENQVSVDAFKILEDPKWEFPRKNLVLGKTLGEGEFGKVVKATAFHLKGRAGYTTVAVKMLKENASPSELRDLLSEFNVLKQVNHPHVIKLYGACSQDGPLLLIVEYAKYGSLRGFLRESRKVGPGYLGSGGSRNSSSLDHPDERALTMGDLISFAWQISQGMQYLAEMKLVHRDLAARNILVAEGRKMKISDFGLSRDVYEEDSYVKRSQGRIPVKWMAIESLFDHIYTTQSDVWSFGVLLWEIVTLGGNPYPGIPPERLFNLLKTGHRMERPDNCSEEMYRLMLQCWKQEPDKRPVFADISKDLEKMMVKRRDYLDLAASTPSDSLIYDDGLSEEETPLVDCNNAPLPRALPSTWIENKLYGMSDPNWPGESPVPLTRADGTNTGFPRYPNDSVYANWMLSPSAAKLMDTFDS

[8] = target: Platelet-derived growth factor receptor beta (Homo sapiens, UniProt P09619); test: Binding affinity to PDGFRbeta
Platelet-derived growth factor receptor beta, sequence (P09619 whole entry): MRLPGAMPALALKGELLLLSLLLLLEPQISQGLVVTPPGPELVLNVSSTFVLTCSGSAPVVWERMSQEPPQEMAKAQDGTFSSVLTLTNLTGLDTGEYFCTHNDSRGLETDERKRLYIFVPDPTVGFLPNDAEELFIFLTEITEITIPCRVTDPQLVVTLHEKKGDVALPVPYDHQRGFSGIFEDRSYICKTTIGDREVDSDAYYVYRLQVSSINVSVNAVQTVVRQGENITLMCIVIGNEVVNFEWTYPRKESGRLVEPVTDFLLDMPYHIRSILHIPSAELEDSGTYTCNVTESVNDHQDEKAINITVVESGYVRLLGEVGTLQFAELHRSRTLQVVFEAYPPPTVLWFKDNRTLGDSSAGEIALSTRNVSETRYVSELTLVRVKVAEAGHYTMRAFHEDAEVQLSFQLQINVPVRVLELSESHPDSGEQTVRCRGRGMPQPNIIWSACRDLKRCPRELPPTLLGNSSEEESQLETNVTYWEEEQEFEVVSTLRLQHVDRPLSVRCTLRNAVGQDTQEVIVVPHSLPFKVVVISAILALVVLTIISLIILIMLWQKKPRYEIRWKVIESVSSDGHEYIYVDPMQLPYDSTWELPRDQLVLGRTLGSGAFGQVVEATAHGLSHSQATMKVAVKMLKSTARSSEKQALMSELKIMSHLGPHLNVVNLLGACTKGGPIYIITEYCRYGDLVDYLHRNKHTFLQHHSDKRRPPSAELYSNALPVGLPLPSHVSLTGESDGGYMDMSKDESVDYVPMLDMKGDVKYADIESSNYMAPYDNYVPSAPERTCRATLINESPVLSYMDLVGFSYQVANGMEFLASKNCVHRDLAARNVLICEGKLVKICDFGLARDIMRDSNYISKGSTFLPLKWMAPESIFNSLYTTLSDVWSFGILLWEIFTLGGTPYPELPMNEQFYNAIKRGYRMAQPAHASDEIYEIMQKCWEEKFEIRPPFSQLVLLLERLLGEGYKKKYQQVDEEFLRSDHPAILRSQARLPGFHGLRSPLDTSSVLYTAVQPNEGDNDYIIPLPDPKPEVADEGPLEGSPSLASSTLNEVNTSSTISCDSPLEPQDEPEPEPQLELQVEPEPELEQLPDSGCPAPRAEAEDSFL

[9] = target: Vascular endothelial growth factor receptor 2 (Homo sapiens, UniProt P35968); test: Binding affinity to VEGFR2
[10] = Cmax in nude mouse at 10 mg/kg, po; type: ADME, organism-based; parameters: dose 10 mg/kg, route oral; conditions: in vivo
[11] = tested on: Mus musculus; test: AUC in nude mouse at 10 mg/kg, po; type: ADME, organism-based, Plasma; parameters: dose 10 mg/kg, route oral; conditions: in vivo
[12] = Half life in nude mouse at 10 mg/kg, po; type: ADME, organism-based; parameters: dose 10 mg/kg, route oral; conditions: in vivo
[13] = tested on: MV4-11; test: Antitumor activity against human MV411 cells in xenografted athymic nude mouse model assessed as decrease in tumor size at 10 mg/kg, po qd for 28 days measured after 36 to 56 days; type: functional, organism-based; parameters: dose 10 mg/kg
[14] = tested on: Mus musculus; test: Toxicity in human MV411 cells in xenografted athymic nude mouse model assessed as change in body weight at 10 mg/kg, po qd for 28 days; type: organism-based, MV4-11; parameters: dose 10 mg/kg, route oral; conditions: in vivo, 672 h
[15] = tested on: MV4-11; test: Antitumor activity against human MV411 cells in xenografted athymic nude mouse model assessed as decrease in tumor size at 10 mg/kg, po qd for 28 days; type: functional, organism-based; parameters: dose 10 mg/kg

Row | SMILES | IC50 [1] [nM] | Kd [2] [nM] | also measured
1 | Cc1ccc2sc(C(=O)Nc3ccc(NC(=O)Nc4cc(C(C)(C)C)on4)cc3)cc2c1 | 0.85 | 0.77 | 
2 | CC(C)(C)c1cc(NC(=O)Nc2ccc(C(=O)Nc3cccnc3)cc2)no1 | 199 | 25 | 
3 | CCN(CC)CCNC(=O)c1c(C)[nH]c(/C=C2\C(=O)Nc3ccc(F)cc32)c1C |  |  | Activity [3]: Active; Activity [4]: Active
4 | CC(C)(C)c1cc(NC(=O)Nc2ccc(NC(=O)c3ncccc3O)cc2)no1 | 0.71 | 0.74 | Kd [5]: 0.96 nM; Kd [6]: 4.4 nM; Kd [7]: 4.7 nM; Kd [8]: 2.6 nM
5 | CC(C)(C)c1cc(NC(=O)Nc2ccc(C(=O)Nc3ccccn3)cc2)no1 | 104 | 8.15 | 
6 | CC(C)(C)c1cc(NC(=O)Nc2ccc(NC(=O)C3CCNCC3)cc2)no1 | 10500 | 240 | 
7 | CC(C)(C)c1cc(NC(=O)Nc2ccc(C(=O)Nc3ccncc3)cc2)no1 | 414 | 38.4 | 
8 | CC(C)(C)c1cc(NC(=O)Nc2ccc(NC(=O)c3cn4c(n3)sc3ccccc34)cc2)no1 | 0.44 | 1.6 | Kd [9]: > 200 nM; Kd [5]: 7.5 nM; Kd [6]: 10 nM; Kd [7]: 3 nM; Kd [8]: 2.2 nM; Cmax [10]: 2360 nM; AUC [11]: 13.2 µM·h; half-life [12]: 2.3 h; Activity [3]: 90 mm3; Activity [13]: inactive; Activity [15]: Active; Activity [14]: < 5%

Second part, led by results:

Row | IC50 [1] [nM] | Kd [2] [nM] | SMILES | also measured
9 | 46.7 | 2.5 | CC(C)(C)c1cc(NC(=O)Nc2ccc(NC(=O)c3cccc(O)n3)cc2)no1 | 
10 | 2.8 | 0.74 | CC(C)(C)c1cc(NC(=O)Nc2ccc(NC(=O)c3nccc4ccccc34)cc2)no1 | 
11 | 3.1 | 0.75 | CC(C)(C)c1cc(NC(=O)Nc2ccc(NC(=O)c3ccc4ccccc4c3)cc2)no1 | 
12 | 1.6 | 0.76 | CC(C)(C)c1cc(NC(=O)Nc2ccc(NC(=O)c3ccccn3)cc2)no1 | 
13 | 159 | 15 | CC(C)(C)c1cc(NC(=O)Nc2ccc(NC(=O)c3cccnc3)cc2)no1 | 
14 | 132 | 10.1 | CC(C)(C)c1cc(NC(=O)Nc2ccc(NC(=O)c3ccncc3)cc2)no1 | 
15 | 101 | 7.4 | CC(C)(C)c1cc(NC(=O)Nc2ccc(C(=O)Nc3ccccc3)cc2)no1 | 
16 | 0.29 |  | CC(C)(C)c1cc(NC(=O)Nc2ccc(NC(=O)c3cc4ccccc4cn3)cc2)no1 | Kd [9]: > 200 nM; Kd [5]: 1.8 nM; Kd [7]: 7.3 nM; Kd [8]: 7 nM; Cmax [10]: 1310 nM; AUC [11]: 4.25 µM·h; half-life [12]: 2.2 h; Activity [3]: 90 mm3; Activity [13]: inactive; Activity [14]: < 5%
17 | 1090 | 510 | CC(C)(C)c1cc(NC(=O)Nc2ccc(NC(=O)Cc3ccccc3)cc2)no1 | 
18 | 30 | 0.98 | CC(C)(C)c1cc(NC(=O)Nc2ccc(NC(=O)c3ccccc3)cc2)no1 | 
